Source: article PMC10547880, “Synthesis and biological evaluation of novel 1,2,3-triazole hybrids of cabotegravir: identification of potent antitumor activity against lung cancer” (Frontiers in Pharmacology, 2023)
“Also recorded” adds a separate entry of the source.

What was measured:
Type in all cases: cell-based, Human
[1] = tested on: H460 cells; assay: Western blot of protein expression, H460; conditions: H460, 2, 4, 8 μM, 72 h
Method: (§1) Western blot was used to analyze protein expressions. Cells were cultured in 12-well plates and treated with different concentrations (0, 2, 4, 8 μM) of compounds for 72 h. Cell proteins were extracted using RIPA buffer with protease/phosphatase inhibitor cocktail (CST). 10%–15% sodium dodecyl sulfate polyacrylamide gel electrophoresis was used to separate proteins and nitrocellulose membranes (Millipore) was used to collected proteins. Antibodies used in western bolt were LC3 (3868s, CST), caspase 3 (9662s, CST), cyclin D (2922s, CST), cyclin E (20808s, CST), β-Catenin (9562s, CST), γH2AX (9718s, CST), PARP (46D11, CST), and β-actin (4967s, CST). Values were expressed as Mean ± SEM, p < 0.05 was considered statistically significant. Data were performed using Graph Prim 7.0.
(§2) Western blot analysis was performed to assess the protein expressions involved in cell growth and cell death processes. H460 and H1299 cells were treated with different concentrations of compound 5i, and whole cell proteins were collected for analysis. […] Autophagy has both tumor suppression and growth promotion effects in cancers, depending on the cellular context and cancer stage. On the one hand, autophagy inhibits cancer development via eliminating dysfunctional proteins and damaged mitochondria. On the other hand, autophagy can promote tumor growth by providing recycled metabolites to support cancer cell survival and growth ([Wang et al., 2023]). […] But in H1299 cells, compound 5i exerted its anticancer ability by suppressing cell division and proliferation.

[2] = tested on: H1299 cells; assay: CCK8 cell viability, H1299; conditions: H1299, 25 μM, 48 h
Method: (§3) Human lung cancer cell line H460 and H1299, human liver normal cell line LO2 were bought from ATCC. DMEM or RPMI 1640 was used as the cell culture medium with 10% FBS and 1% penicillin/streptomycin. Cells were maintained in an incubator with 37°C humidified atmosphere and 5% CO2.
(§4) Cell viability and IC50 values were determined using the CCK8 assay kit. Cells were seeded at a density of 5 × 10^3 cells per well in a 96-well plate. After overnight adhesion, 25 μM of compounds or vehicle control DMSO which all dissolved in the culture medium were added to cells and cultured for 48 h or 72 h. CCK8 reagent, dissolved in the medium, was then added to cells and incubated for 1 h. The absorbance at 450 nm was measured using a microplate spectrophotometer (Thermo). Cell viability was calculated, with the untreated group taken as 100%. For IC50 values determination, different concentrations (0, 0.4 μM, 2 μM, 10 μM, 20 μM, 50 μM) of compounds were added to cells for 72 h. Subsequent CCK8 measurement allowed the calculation of inhibition percentage based on cell viability. The IC50 values were computed by the prism statistical software. The CCK-8 assay was conducted three times and the repetitions in each time were at least three. All the values were expressed as Mean ± SD, p < 0.05 was considered statistically significant.
(§5) In order to assess the potential cytotoxicity of the synthesized compounds, we selected two types of human non-small-cell lung cancer cell line, H460 and H1299. Cell viability and cytotoxicity were evaluated using the CCK8 assay ([Xu et al., 2018]). The cells were treated with 25 μM of compounds 5a-5s and 6a-6i for 48h and 72 h. […] In contrast, no compounds managed to reduce H1299 cell viability to less than 50%, yet compounds 5i, 5m, 6h and 6i achieved cell viability rates below 70%. […] It is worth noting that minimal effects on the cell viability of the normal cell line LO2 were observed when exposed to these compounds. Further, we determined the half-maximal inhibitory concentration (IC50) of selected compounds against H460 cells, the results of which were summarized in Table 3.

[3] = tested on: LO2 cells; assay: CCK8 cell viability, normal cell line LO2; conditions: LO2 normal liver cells, 25 μM, 72 h
Method: as §3, §4, §5

[4] = tested on: H1299 cells; assay: Apoptosis assay, Annexin V-FITC/PI flow cytometry, H1299; conditions: H1299, 72 h
Method: Cells with a density of 3 × 10^5 cells per well were seeded in 6-well plates. After overnight adhesion, cells were treated with different concentrations of compounds for 72 h. Cells were harvested and stained with Annexin V-FITC and propidium iodide. Apoptotic ratio was quantified using the flow cytometry (BD Biosciences) and analyzed using the FlowJo software v10. Values were expressed as Mean ± SD, p < 0.05 was considered statistically significant. Data were performed using Graph Prim 7.0.
Apoptosis is a programmed-controlled process of cell self-destruction, and increased cell apoptosis can lead to cell death ([Wang et al., 2023]). To explore the preliminary molecular mechanisms of the synthesized compounds action, the apoptotic activity of compound 5i was evaluated by comparing the percentage of apoptotic cells with untreated cells using flow cytometry after staining with Annexin V-FITC and PI ([Chen et al., 2022a]). This assay facilitates the detection of necrotic cells (Q1, AV-/PI+), late apoptotic cells (Q2, AV+/PI+), early apoptotic cells (Q3, AV+/PI-), and live cells (Q4, AV-/PI-). H460 and H1299 cells were treated with different doses of compound 5i for 72h, and cells were collected, stained, and analyzed. The proportion of early and late apoptotic cells was added and their ratio relative to the total cells was calculated.

[5] = tested on: H1299 cells; assay: Western blot of protein expression, H1299; conditions: H1299, 2, 4, 8 μM, 72 h
Method: as §1, §2

COc1c2n(cc(C(=O)Nc3cccc(-c4cn(-c5ccccc5OC(F)(F)F)nn4)c3)c1=O)CC1OCC(C)N1C2=O (centres unmarked) [Compound 5i]
Cyclin D expression [1]: no significant differences | Cyclin E expression [1]: no significant differences | LC3 expression [1]: pronounced elevation; also recorded: significant increase | PARP expression [1]: no significant differences | caspase3 expression [1]: no significant differences | β-catenin expression [1]: no significant differences | γ-H2AX expression [1]: no significant differences | Cell viability [2]: 90.47% | Cell viability [3]: 99.80% | apoptotic cells (early + late) [4]: no significant change or even a decrease | Cyclin D level [5]: decrease | Cyclin E level [5]: decrease | LC3 expression [5]: no significant differences | PARP expression [5]: remained unaffected | caspase3 expression [5]: no significant differences | β-catenin expression [5]: remained unaltered | γ-H2AX expression [5]: pronounced elevation; also recorded: increased expression
